Source: US8765779B2, “Tricyclic derivatives and their pharmaceutical use and compositions” (Cephalon, Inc., priority 2009, dated 2014)
Counter-ions that a name gives are not always drawn.

molecular target: T1, human 5-HT6 receptor (Homo sapiens, UniProt P50406); assay: Human 5-HT6 Receptor Binding Assay ([3H]LSD displacement, scintillation beads); conditions: membranes of CHO-K1 cells with recombinant human 5-HT6, 4 nM [3H]LSD; Table 1, class symbols; read-out: h5-HT6 (Ki)
T1 construct: host or cells: CHO-K1 cells, stably transfected; membranes prepared in house
T1 sequence (P50406 whole entry): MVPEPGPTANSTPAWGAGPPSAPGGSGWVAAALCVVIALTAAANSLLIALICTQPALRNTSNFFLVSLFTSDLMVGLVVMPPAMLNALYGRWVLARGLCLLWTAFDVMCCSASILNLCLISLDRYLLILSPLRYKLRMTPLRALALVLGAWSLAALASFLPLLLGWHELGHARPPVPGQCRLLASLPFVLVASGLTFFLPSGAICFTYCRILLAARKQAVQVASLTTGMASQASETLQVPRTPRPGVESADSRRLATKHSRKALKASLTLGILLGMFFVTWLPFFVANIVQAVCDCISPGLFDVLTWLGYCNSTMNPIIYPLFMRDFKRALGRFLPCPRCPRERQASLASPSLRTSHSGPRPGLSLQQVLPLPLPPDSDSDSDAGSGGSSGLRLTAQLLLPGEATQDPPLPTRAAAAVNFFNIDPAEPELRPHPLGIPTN
Experimental: Human 5-HT6 Receptor Binding Assay
Membranes were prepared from CHO—K1 cells stably transfected with the human 5-HT6 receptor (Euroscreen; ES-316-C). The cells were grown in Gibco Advanced DMEM-F12 (Cat#12634010) containing 2% dialyzed FBS (Hyclone Cat#SH30079.03). The cells were harvested in phosphate buffered saline (PBS) containing 0.1 mM EDTA and pelleted by centrifugation (1000×g), the supernatant was discarded and the pellets were stored at −80° C. prior to membrane preparation. Membranes were prepared as previously described (J Bio Chem. 1992, 267 (14) 9844-51). Briefly, frozen cell pellet was resuspended in a lysis buffer containing 5 mM Tris-HCl (pH 7.5), 5 mM EDTA and 1 complete EDTA-free protease inhibitor tablet (Roche Applied Science, Indianapolis, Ind.) per 50 mL buffer, and homogenized with a tissue homogenizer. The cell lysate was then centrifuged at 40,000×g for 30 min at 4° C. to collect the membranes. The membrane pellets were washed in membrane buffer (50 mM Tris-HCl (pH 7.5), 0.6 mM EDTA, 5 mM MgCl2, 1 complete EDTA-free protease inhibitor tablet per 50 mL buffer) using a tissue homogenizer. The membranes were centrifuged at 40,000×g for 30 min at 4° C. and the pellets were resuspended in membrane buffer containing 250 mM sucrose, and protein concentration was determined using the Coomassie Plus kit (Pierce Biotechnology, Rockford, Ill.).
Membranes prepared from cells expressing recombinant human 5-HT6 receptor (h5-HT6) were resuspended in assay buffer containing 50 mM Tris HCl, (pH7.4), 4 mM CaCl2, 10 μg/mL saponin, and 0.1% (w/v) ascorbic acid. Membranes were preincubated using 1.75 μg membrane protein and 0.25 mg FlashBlue scintillation beads (PerkinElmer catalogue #FB001) per well at 4° for 30 min. […] Test compounds or assay controls for total and non-specific binding were diluted in DMSO as 100× solutions and serially diluted by half log concentrations on a Perkin Elmer JANUS Automated Workstation. Serotonin (10 μM final concentration) was used to determine non-specific binding in the assay. Plates were read using the Microbeta Trilux 1450 LSC and luminescence counter. Data were analyzed by nonlinear […] using the dose-response equation (variable slope) to calculate IC50 in XLfit4 (ID Business Solutions Inc.): y=(Bottom+((Top−Bottom)/(1+((IC50/x)^Hill slope))))
Ki value was then calculated according to the Cheng-Prusoff method using the equation below (Cheng and Prusoff, 1973): Ki,app=IC50/(1+[radioligand]/Kd))

Ki [nM]	SMILES
< 500	CC(=O)N(C)CC1NCCc2c1oc1cc(S(=O)(=O)c3cccc(F)c3)ccc21 (racemic) [Example 537, N-({7-[(3-fluorophenyl)sulfonyl]-1,2,3,4-tetrahydro[1]benzofuro[2,3-c]pyridin-1-yl}methyl)-N-methylacetamide]
< 500	O=S(=O)(Oc1ccc2c(c1)OC1CNCCC21)c1c(Cl)nc2sccn12 (stereo not shown) [Example 793]
< 500	O=S(=O)(c1ccc2c(c1)OC1CNCCC21)c1cccnc1OCC(F)(F)F (stereo not shown) [Example 394]
< 500	O=S(=O)(c1ccc2oc3c(c2c1)CCNC3)c1ccccn1 [Example 353]
< 500	O=S(=O)(c1cccc(OCC2CCCO2)c1)c1ccc2c(c1)OC1CNCCC21 (stereo not shown) [Example 577]
> 1000	O=S(=O)(Oc1ccc2c(c1)C1CCNCC1O2)c1ccccc1C(F)(F)F (stereo not shown) [Example 736]
< 500	CC1(C)NCCc2c1oc1cc(S(=O)(=O)c3cc(F)cc(F)c3)ccc21 [Example 293]
< 500	CC(C)Oc1cc(OCCO)cc(S(=O)(=O)c2ccc3c(c2)OC2CNCCC32)c1 (stereo not shown) [Example 590]
< 500	CC1(C)NCCc2c1oc1cc(S(=O)(=O)c3cccc4c3OCCO4)ccc21 [Example 466]
> 1000	O=S(=O)(Oc1ccc2c(c1)C1CCNCC1O2)c1ccc(-c2cnco2)cc1 (stereo not shown) [Example 734]
< 500	O=S(=O)(Oc1ccc2c(c1)OC1CNCCC21)c1ccc(-c2cnco2)cc1 (stereo not shown) [Example 672]
> 1000	O=S(=O)(c1ccc2oc3c(c2c1)CCNC3)C1CCCCC1 [Example 280]
> 1000	CC(=O)N1CCC2c3cc(NS(=O)(=O)c4ccc5ccccc5c4)ccc3OC2C1 (stereo not shown) [Example 814, N-(2-Acetyl-1,2,3,4,4a,9a-hexahydro[1]benzofuro[2,3-c]pyridin-6-yl)naphthalene-2-sulfonamide]
< 500	O=S(=O)(Oc1ccc2c(c1)OC1CNCCC21)c1ccccc1Cl (stereo not shown) [Example 654]
< 500	CC1(C)NCCc2c1oc1cc(S(=O)(=O)c3cc(Cl)cnc3N)ccc21 [Example 372]
< 500	COCCN1CCc2c(oc3cc(S(=O)(=O)c4ccccc4)ccc23)C1 [Example 594]
< 500	CC1NCCc2c1oc1ccc(S(=O)(=O)c3ccc(F)c(F)c3)cc21 (stereo not shown) [Example 284]

Ki [nM]	SMILES
< 500	CC1(C(F)F)NCCc2c1oc1cc(S(=O)(=O)c3ccccc3)ccc21 (stereo not shown) [Example 524]
< 500	O=S(=O)(c1ccc2c(c1)OC1CNCCC21)c1ccccc1OCC(F)(F)F (stereo not shown) [Example 408]
< 500	O=S(=O)(Oc1ccc2c(c1)OC1CNCCC21)c1ccc2c(c1)OCCO2 (stereo not shown) [Example 668]
< 500	CC(C)Oc1cccc(S(=O)(=O)c2ccc3c(c2)OC2C3CCNC23CCC3)c1 (stereo not shown) [Example 622, 7-{[3-(Propan-2-yloxy)phenyl]sulfonyl}-3,4,4a,9a-tetrahydro-2H-spiro[1-benzofuro[2,3-c]pyridine-1,1′-cyclobutane]hydrochloride]
< 500	O=S(=O)(Oc1ccc2c(c1)OC1CNCCC21)c1c(Cl)nc2sccn12 (stereo not shown) [Example 638]
< 500	O=S(=O)(c1cccc(F)c1)c1ccc2oc3c(c2c1)CCNC3C1CCOC1 (stereo not shown) [Example 516]
> 1000	O=S(=O)(Cc1cccc(Cl)c1)Oc1ccc2c(c1)C1CCNCC1O2 (stereo not shown) [Example 752]
< 500	CC(C)Oc1cccc(S(=O)(=O)c2ccc3oc4c(c3c2)CCNC4)c1 [Example 267]
> 1000	O=S(=O)(Nc1ccc2c(c1)C1CCNCC1O2)c1ccccc1 (stereo not shown) [Example 817, N-(1,2,3,4,4a,9a-Hexahydro[1]benzofuro[2,3-c]pyridin-6-yl)benzenesulfonamide]
< 500	O=S(=O)(c1cccc(OCC2CCOCC2)c1)c1ccc2c(c1)OC1CNCCC21 (stereo not shown) [Example 581, 7-{[3-(tetrahydro-2H-pyran-4-ylmethoxy)phenyl]sulfonyl}-1,2,3,4,4a,9a-hexahydro[1]benzofuro[2,3-c]pyridine]
500 to 1000	O=S(=O)(Nc1ccc2c(c1)C1CCNCC1O2)c1cc2ccccc2o1 (stereo not shown) [Example 833]
< 500	O=S(=O)(c1cccc(F)c1)c1ccc2c3c(oc2c1)C(CCBr)NCC3 (stereo not shown) [Example 497]
< 500	O=S(=O)(c1cccc(Cl)c1)c1ccc2c3c(oc2c1)C(C1CCOC1)NCC3 (stereo not shown) [Example 521]
< 500	Cc1ccc(S(=O)(=O)Oc2ccc3c(c2)OC2CNCCC32)cc1C (stereo not shown) [Example 649]
< 500	CC1(C)NCCc2c1oc1cc(S(=O)(=O)c3cccc(OC(F)(F)F)c3)ccc21 [Example 291, 1,1-dimethyl-7-{[3-(trifluoromethoxy)phenyl]sulfo-nyl}-1,2,3,4-tetrahydro[1]benzofuro[2,3-c]pyridine]
< 500	O=S(=O)(c1ccc2c(c1)OC1CNCCC21)c1cccc(F)c1F (stereo not shown) [Example 399]

Continued, compound first:

SMILES	Ki [nM]
O=S(=O)(c1ccc2c(c1)OC1CNCCC21)c1ccccc1-c1ccccc1 (stereo not shown) [Example 153]	< 500
O=S(=O)(c1ccc2c(c1)C1CCNCC1O2)c1cccc(Cl)c1Cl (stereo not shown) [Example 176]	< 500
CC(C)c1ccc(S(=O)(=O)c2ccc3c(c2)OC2CNCCC32)cc1 (stereo not shown) [Example 125]	< 500
O=S(=O)(c1ccc(Cl)c(C(F)(F)F)c1)c1ccc2c3c(oc2c1)CNCC3 [Example 210]	< 500
O=S(=O)(c1cc(F)cc(F)c1)c1ccc2c(c1)OC1CNCCC21 (stereo not shown) [Example 164]	< 500
O=S(=O)(c1cccc(F)c1)c1ccc2c3c([nH]c2c1)C1(CCCOC1)NCC3 (stereo not shown) [Example 317]	< 500
O=S(=O)(c1ccc2c(c1)OC1CNCCC21)c1ccccc1-c1ccccc1 (stereo not shown) [Example 152]	< 500
O=S(=O)(c1ccc2c(c1)OCCO2)c1cccc2c1OC1CNCCC21 (stereo not shown) [Example 185]	< 500
O=S(=O)(c1ccc2c(c1)OCCO2)c1ccc2c(c1)C1CCNCC1O2 (stereo not shown) [Example 180]	> 1000
Cc1cc(S(=O)(=O)c2ccc3c(c2)OC2CNCCC32)ccc1F (stereo not shown) [Example 137]	< 500
Cc1cccc([S+]([O-])c2ccc3c(c2)OC2CNCCC32)n1 (stereo not shown) [Example 327]	> 1000
Cc1cccc(S(=O)(=O)c2ccc3c(c2)OC2CNCCC32C)n1 (racemic) [Example 6, 4a-methyl-7-[(6-methylpyridin-2-yl)sulfonyl]-1,2,3,4,4a,9a-hexahydro[1]benzofuro[2,3-c]pyridine]	> 1000
CC12CCNCC1Oc1cc(S(=O)(=O)c3cccc4c3OC(F)(F)O4)ccc12 (stereo not shown) [Example 460]	< 500
O=S(=O)(c1ccc2c3c(oc2c1)CNCC3)c1ccccc1Cl [Example 230]	< 500
COc1cccc(S(=O)(=O)Oc2ccc3c(c2)C2(C)CCNCC2O3)c1 (stereo not shown) [Example 761]	> 1000
CC(C)(C)c1ccc(S(=O)(=O)Oc2ccc3c(c2)C2(C)CCNCC2O3)cc1 (stereo not shown) [Example 774]	> 1000
O=S(=O)(c1ccc2oc3c(c2c1)CCNC3)c1cc(Cl)ccc1Cl [Example 266, 6-[(2,5-dichlorophenyl)sulfonyl]-1,2,3,4-tetrahydro[1]benzofuro[2,3-c]pyridine]	< 500
CC(C)Oc1cccc(S(=O)(=O)c2ccc3c(c2)OC2CNCCC32)c1 (stereo not shown) [Example 159]	< 500
Cc1cccc(S(=O)(=O)c2ccc3c(c2)OC2CNCCC32)c1 (stereo not shown) [Example 141]	< 500
O=[N+]([O-])c1ccc(S(=O)(=O)c2cccc3c2OC2CNCCC32)cc1 (stereo not shown) [Example 190]	> 1000
CC12CCNCC1Oc1ccc(OS(=O)(=O)Cc3cccc(C(F)(F)F)c3)cc12 (stereo not shown) [Example 788]	< 500
O=S(=O)(c1ccc2c(c1)OC1CNCCC21)c1cccc(Cl)c1Cl (stereo not shown) [Example 162]	< 500
Cc1cc(S(=O)(=O)c2ccc3c4c(oc3c2)CNCC4)ccc1F [Example 218]	< 500
O=S(=O)(c1cccc(F)c1)c1ccc2c3c(oc2c1)C1(CCOC1)NCC3 (racemic) [Example 30, 7-[(3-fluorophenyl)sulfonyl]-3,4,4′,5′-tetrahydro-2H-spiro[1-benzofuro[2,3-c]pyridine-1,3′-furan]]	< 500
CN(C)C(=O)c1cccc(S(=O)(=O)c2ccc3c(c2)OC2CNCCC32C)c1 (stereo not shown) [Example 425]	> 1000
CC12CCN(CCc3ccccc3)CC1Oc1ccc(OS(=O)(=O)Cc3ccccc3)cc12 (stereo not shown) [Example 811]	> 1000
O=S(=O)(c1ccc(Oc2ccccc2)cc1)c1ccc2oc3c(c2c1)CCNC3 [Example 248]	< 500
Cc1noc(C)c1S(=O)(=O)Oc1ccc2c(c1)C1CCNCC1O2 (stereo not shown) [Example 703]	> 1000
